This note sets out measurements from patent publication US4451448A, “1-Substituted tricyclic quinazolinones useful as tranquilizers” (Sandoz, Inc., priority 1982, dated 1984).

SMILES strings stand for the structures.

For this test, the system named is isolated calf brain benzodiazepine receptors. Put plainly: Flunitrazepam Receptor Binding Assay (FBA TEST No. 1), displacement of 3H-flunitrazepam. The conditions noted are these: compound at final concentration of 1×10^-6 M; calf caudate tissue; 1 µM.

With `C=CCN1CCn2c1nc1ccc(Cl)cc1c2=O` [Example 1, 1-allyl-7-chloro-2,3-dihydro-imidazo[2,1-b]quinazolin-5(1H)-one], the “percent specifically bound 3H-flunitrazepam compared to control” value is listed as 13 % of control.

Consider `O=c1c2cc(Cl)ccc2nc2n1CCN2C1CCCC1` [Example 2, 7-chloro-1-cyclopentyl-2,3-dihydro-imidazo[2,1-b]quinazolin-5(1H)-one], for which the “percent specifically bound 3H-flunitrazepam compared to control” value is given as 19 % of control.
